Converted amounts (≈) assume the structure as drawn. “And” between values parts separate entries of the source, which are not always exact repeats. Equal values may be shown once. Residues, ends and D or L forms follow the SMILES beside them. *: point of attachment. Palmitoyl = CCCCCCCCCCCCCCCC(=O)*; AEEA = NCCOCCOCC(=O)O
Assays:
[1] = tested on: C. rodentium strain ICC180; assay: Citrobacter rodentium gastrointestinal infection in mice; assay type: in vivo, C57BL/6N mice
Method: Bioluminescence expressing C. rodentium strain ICC180 was used for all infection experiments. C. rodentium inocula were prepared by culturing bacteria overnight at 37 °C in LB broth with 50 µg/ml kanamycin. Subsequently, the culture was diluted 1:100 in fresh medium, and sub-cultured for 4 h at 37 °C in LB broth. Bacteria were washed twice in phosphate-buffered saline (PBS). Mice were orally inoculated with 10^8 CFU of C. rodentium diluted in 200 µl PBS. Weight of the mice was monitored and feces were collected for measurements of the pathogen burden. After 5 days post infection mice received twice 250 µg peptide solved in 100 µl PBS or only PBS orally. The following day, mice were sacrificed to assess bacterial burden in the lumen and tissues of the cecum and the colon.
All mice were euthanized by asphyxiation with CO2 at indicated time points. Intestinal tissues (small intestine, cecum, colon) were removed aseptically. To collect intestinal content, organs were flushed with PBS. Organs were opened longitudinally, cleaned thoroughly with PBS and weighted. Organs and content were homogenized in PBS using a Polytron homogenizer (Kinemtatica). Dilutions of homogenized samples were plated on LB plates containing 50 μg/ml kanamycin to determine CFUs.

[2] = tested on: S. Typhimurium; assay type: cell-based; conditions: radial diffusion assay
Method: Antimicrobial activity was analyzed by radial diffusion assay. Log-phase bacteria were cultivated for up to 18 h in TSB (TSB, Becton Dickinson, USA), washed and diluted to 4 × 10^6 CFU in 10 ml agar. Bacteria were incubated in 10 ml of 10 mM sodium phosphate, pH 7.4, containing 0.3 mg/ml of TSB powder and 1% (w/v) low EEO-agarose (AppliChem). 1 µg of each lipopeptide was pipetted into punched wells in a final volume of 4 µl and diffused into the gel for 3 h at 37 °C. After that, a nutrient-rich gel with 6% TSB (w/v) and 1% agarose in 10 mM sodium phosphate buffer was poured on top of the first gel and incubated for up to 24 h at 37 °C. Then the diameter of inhibition zones was measured.

[3] = tested on: S. aureus ATCC25923; assay: Treatment of established biofilms; assay type: cell-based; conditions: for viable bacteria in biofilm: 24 h old biofilm, 1 h treatment
Method: Then, planktonic bacteria were removed by two wash steps with PBS. […] Afterward, adherent bacteria in each well were resuspended, and the number of viable bacteria was determined microbiologically. […] The biofilm degradation assay was performed in agreement with the original report describing this method first.

[4] = tested on: P. aeruginosa PAO1; assay type: cell-based
Method: (§1) After incubation at 37 °C and 150 rpm for 1–120 min, a sample of 50 µl was taken from the suspension and added to 50 µl of a 0.05% (v/v) sodium polyanethol sulfonate (Sigma-Aldrich) solution, which neutralizes remaining peptide activity, and plated on LB agar to determine the number of viable bacteria.

[5] = tested on: S. aureus ATCC25923; assay type: cell-based
Method: as §1

[6] = Oral tolerance test (safety) in mice; assay type: in vivo, C57BL/6N mice; conditions: for Creatinin / GOT: serum; for Creatinin / GOT / Bodyweight loss: individual animals
From the text: C57BL/6N mice were generated and maintained (including breeding and housing) at the animal facilities of the Helmholtz Centre for Infection Research (HZI) under enhanced specific pathogen-free (SPF) conditions. Animals used in the experiments were gender and age matched. Female and male mice with an age of 8–12 weeks were used. Sterilized food and water ad libitum was provided. Mice were kept under a strict 12-h light cycle (lights on at 7:00 am and off at 7:00 pm) and housed in groups of two to six mice per cage. All mice were euthanized by asphyxiation with CO2 and cervical dislocation. All animal experiments were performed in agreement with the local government of Lower Saxony, Germany (approved permission No. 33.19-42502-04-18/2499).
Age- and gender-matched mice received two doses of peptides (0, 125 µg or 250 µg) solved in 100 µl PBS orally per day. Bodyweight and appearance were recorded. The following day, mice were sacrificed and stomach, kidney, spleen, liver, small intestine, cecum, and colon were removed for histological scoring. Around 1 ml of blood was taken from the heart to measure inflammatory markers, including creatinine in the kidney and the enzyme levels of glutamate-oxalacetate-transaminase (GOT) in the liver.

[7] = two doses of 250 µg orally 5 days p.i., following day, individual animals, N = 11
[8] = histology, animals with signs of pathology/total, treated twice with 250 µg orally, within 24 h
[9] = one day after 2 x 125 µg orally, N = 4
[10] = one day after 2 x 250 µg orally, N = 6

With `CCCCCCCCCCCCCCCC(=O)NCCOCCOCC(=O)N[C@@H](CCCNC(=N)N)C(=O)NCC(=O)N[C@@H](CCCCN)C(=O)N[C@@H](C)C(=O)N[C@@H](CCCCN)C(=O)N[C@@H](CS)C(=O)N[C@@H](CS)C(=O)N[C@@H](CCCCN)C(=O)O` [Pam-3] ({Palmitoyl-AEEA}-RGKAKCCK-OH; C-terminus assumed) the “viable Citrobacter in colon content and colon tissue vs PBS (in words)” value ([1]; Mann–Whitney p = 0.0010 and p = 0.0104) was “significantly reduced”, the “bacteria in cecum content and cecum tissue vs PBS (in words)” value ([1]; Mann–Whitney p = 0.0104 and p = 0.0473) was “reduced the number of bacteria” and the “C. rodentium in cecum content” value [1, 7] was 20533880 CFU/g and 455636 CFU/g and 278413400 CFU/g and 15654650 CFU/g and 366007 CFU/g and 16133443 CFU/g and 143723333 CFU/g and 2819342 CFU/g and 262402624 CFU/g and 251094891 CFU/g and 226500566 CFU/g. The “C. rodentium in cecum tissue” value [1, 7] was 490000 CFU/g and 307086614 CFU/g and 556897 CFU/g and 3530864 CFU/g and 21702128 CFU/g and 74039735 CFU/g and 1204147 CFU/g and 780234 CFU/g and 18903800 CFU/g and 586941 CFU/g and 191336 CFU/g, the “C. rodentium in colon content” value [1, 7] was 1762185 CFU/g and 60751515 CFU/g and 1789819 CFU/g and 315018315 CFU/g and 310211946 CFU/g and 1173126615 CFU/g and 2621359 CFU/g and 289220 CFU/g and 25236170 CFU/g and 708075 CFU/g and 1616071 CFU/g and the “C. rodentium in colon tissue” value [1, 7] was 58623.6 CFU/g and 30241621 CFU/g and 100000 CFU/g and 24432209 CFU/g and 42962357 CFU/g and 13239974 CFU/g and 61561.6 CFU/g and 13820.3 CFU/g and 2719752 CFU/g and 44329.9 CFU/g and 628386 CFU/g. The “inhibition of S. Typhimurium growth (in words)” value [2] was “consistently inhibited”, the “eradication of bacteria in biofilms” value ([3]; 300 µM, within 1 h, Kruskal–Wallis p = 0.0026) was ~ 99.99% and the “viable bacteria in biofilm” value ([3]; 9.375 µM Pam-3, experiment 1) was 43066667 CFU/ml. For the same compound, the “viable bacteria in biofilm” value ([3]; 9.375 µM Pam-3, experiment 2) was 6050000 CFU/ml, the “viable bacteria in biofilm” value ([3]; 9.375 µM Pam-3, experiment 3) was 15666667 CFU/ml and the “viable bacteria in biofilm” value ([3]; 18.75 µM Pam-3, experiment 1) was 32200000 CFU/ml. The “viable bacteria in biofilm” value ([3]; 18.75 µM Pam-3, experiment 2) was 3550000 CFU/ml, the “viable bacteria in biofilm” value ([3]; 18.75 µM Pam-3, experiment 3) was 17250000 CFU/ml and the “viable bacteria in biofilm” value ([3]; 37.5 µM Pam-3, experiment 1) was 27300000 CFU/ml. For the same compound, the “viable bacteria in biofilm” value ([3]; 37.5 µM Pam-3, experiment 2) was 2333333 CFU/ml, the “viable bacteria in biofilm” value ([3]; 37.5 µM Pam-3, experiment 3) was 5966667 CFU/ml and the “viable bacteria in biofilm” value ([3]; 75 µM Pam-3, experiment 1) was 1496667 CFU/ml. For the same compound, the “viable bacteria in biofilm” value ([3]; 75 µM Pam-3, experiment 2) was 239889 CFU/ml, the “viable bacteria in biofilm” value ([3]; 75 µM Pam-3, experiment 3) was 3451667 CFU/ml and the “viable bacteria in biofilm” value ([3]; 150 µM Pam-3, experiment 1) was 150333 CFU/ml. The “viable bacteria in biofilm” value ([3]; 150 µM Pam-3, experiment 2) was 9167 CFU/ml, the “viable bacteria in biofilm” value ([3]; 150 µM Pam-3, experiment 3) was 24500 CFU/ml and the “viable bacteria in biofilm” value ([3]; 300 µM Pam-3, experiment 1) was 67 CFU/ml. For the same compound, the “viable bacteria in biofilm” value ([3]; 300 µM Pam-3, experiment 2) was 333 CFU/ml, the “viable bacteria in biofilm” value ([3]; 300 µM Pam-3, experiment 3) was 1300 CFU/ml and the “time to eradication to the level of detection” value ([4]; 9.38 µM Pam-3) was 2 min. The “time to killing of more than 90% of bacteria” value ([4]; 9.38 µM Pam-3) was ≤ 1 min, the MIC ([4]; PAO1) was 9.38 µM (≈ 12 µg/mL) and the “time to eradication to the level of detection” value ([5]; 9.38 µM Pam-3) was 30 min. For the same compound, the “time to killing of more than 90% of bacteria” value ([5]; 9.38 µM Pam-3) was ≤ 15 min, the MIC ([5]; ATCC25923) was 9.38 µM (≈ 12 µg/mL) and the “acute toxicity (in words)” value ([6]; histology and serum markers 24 h after two doses of 250 µg orally) was “did not reveal acute toxicity”. The “Cecum and Colon: Dysplasia” value [6, 8] was 0/6, the “Cecum and Colon: Inflammation” value [6, 8] was 0/6 and the “Duodenum-Jejunum: Dysplasia” value [6, 8] was 0/6. The “Duodenum-Jejunum: Inflammation” value [6, 8] was 0/6, the “Jejunum-Ileum: Dysplasia” value [6, 8] was 2/6 and the “Jejunum-Ileum: Inflammation” value [6, 8] was 0/6. For the same compound, the “Jejunum-Ileum: Paneth cells” value [6, 8] was 0/6, the “Kidney: Glomeruli” value [6, 8] was 0/6 and the “Kidney: Papilla” value [6, 8] was 0/6. For the same compound, the “Kidney: Pelvis” value [6, 8] was 0/6, the “Kidney: Tubuli” value [6, 8] was 3/6 and the “Liver: Anisocaryosis” value [6, 8] was 0/6. The “Liver: Double nucleated cells” value [6, 8] was 0/6, the “Liver: Fatty change” value [6, 8] was 0/6 and the “Liver: Glycogen” value [6, 8] was 0/6. For the same compound, the “Liver: Hematopoiesis” value [6, 8] was 0/6, the “Liver: Lymphocytic aggregates” value [6, 8] was 0/6 and the “Stomach: Glycogen” value [6, 8] was 0/6. For the same compound, the “Stomach: Lymphocytic aggregates” value [6, 8] was 0/6, the “bodyweight (in words)” value ([6]; oral Pam-3, Fig. 4a) was “no alterations in bodyweight” and the “serum glutamic oxaloacetic transaminase vs PBS (in words)” value ([6]; oral Pam-3, Fig. 4b) was “no significant differences”. The “serum creatinine vs PBS (in words)” value ([6]; oral Pam-3, Fig. 4c) was “no significant differences”, the Creatinin [6, 9] was 0.7 mg/dL and 0.3 mg/dL and the GOT [6, 9] was 56 U/I and 83 U/I and 71 U/I and 622 U/I. For the same compound, the Creatinin [6, 10] was 0.4 mg/dL and 0.5 mg/dL and 0.3 mg/dL and 0.2 mg/dL and 0.6 mg/dL, the GOT [6, 10] was 271 U/I and 163 U/I and 240 U/I and 280 U/I and 771 U/I and 499 U/I and the Bodyweight loss ([6]; treated twice with 125 µg orally, N = 5) was 98.6047% and 99.4355% and 98.663% and 99.2814% and 97.8588%. The Bodyweight loss ([6]; treated twice with 250 µg orally, N = 6) was 97.5318% and 97.8707% and 99.133% and 99.7222% and 99.016% and 101.461%.

Reference: PMC7794397, “Curbing gastrointestinal infections by defensin fragment modifications without harming commensal microbiota” (Communications Biology, 2021)
